According to patent US20220267356A1, “ARGINASE INHIBITORS AND METHODS OF USE THEREOF” (AstraZeneca AB, priority 2019, published 2022):
pIC50: −log10 of the molar value. Read-outs that look alike come from different tables or passages of the source.

Assays:
[1] = Bioavailability / pharmacokinetic study in male rats (IV and PO); assay type: in vivo; details: rat; for Vd: read-out: Vdss; for Cmax / Tmax / AUC: PO 5 mg/kg; for bioavailability: 5 mg/kg, pro-drug when dosed as pro-drug, PO vs IV
Experimental: Example 14 is a prodrug form of Example 1. Examples 19 to 22 and 24 to 26 are prodrugs of example 18. […] Example 19 was formulated in 0.9% w/v saline pH 4 (adjusted with 1 M HCl) for IV dosing. The formulation was dosed at 2 mg/kg by femoral catheter to two male rats each (170-250 g). Jugular vein catheter serial blood samples were taken at 0.033, 0.083, 0.167, 0.5, 1, 2, 4, 8, and 24 hrs post-dose. For PO dosing, Example 19 was formulated in deionized water pH 4 (adjusted with 1 M HCl) and dosed at 5 mg/kg by oral gavage to two male rats each (170-250 g). Serial blood samples were taken by jugular vein catheter at 0.25, 0.5, 1, 1.5, 2, 3, 4, 8, and 24 hrs post dose. Plasma samples were generated from blood using low speed centrifugation. A single set of calibration standards containing Example 18 and Example 19 were prepared by spiking blank plasma. The samples and standards were extracted by precipitation with two volumes of acetonitrile followed by centrifugation. The results obtained were used to determine the Cl (mL/min/kg), Vdss (L/kg), Cmax (μM), AUC (μM h), tmax (h), and % F for both Example 18 and Example 19. Absolute bioavailability was determined by comparing the PO dose normalized AUC of Example 18 when dosed as Example 19, versus the dose normalized IV AUC of Example 18 when dosed as Example 18. Where appropriate, measured, not nominal, doses were used in the calculation. In an analogous fashion, the same procedure was repeated for Examples 14, 20 to 22, and 24 to 26.

Human Arginase 1 = target: T1, Human Arginase 1 (Homo sapiens, UniProt P05089); assay: Human Arginase 1 enzyme inhibition (thioarginine/DTNB absorbance at 412 nm); assay type: biochemical; details: recombinant enzyme 5 nM, 60 min, room temperature
T1 construct: made in house; host or cells: E. coli
T1 sequence (P05089 1-322): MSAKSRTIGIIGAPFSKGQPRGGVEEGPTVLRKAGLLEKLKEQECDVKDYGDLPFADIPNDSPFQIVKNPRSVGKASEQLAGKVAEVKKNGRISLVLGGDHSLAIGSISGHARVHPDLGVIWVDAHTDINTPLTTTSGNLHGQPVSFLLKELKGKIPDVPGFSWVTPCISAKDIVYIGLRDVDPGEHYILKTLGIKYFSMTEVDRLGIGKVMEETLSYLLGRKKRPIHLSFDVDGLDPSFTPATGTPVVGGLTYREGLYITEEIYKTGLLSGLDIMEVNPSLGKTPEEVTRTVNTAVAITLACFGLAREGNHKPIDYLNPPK
From the text: (§1) The inhibitory effects of Examples 1-26 on the activity of Human Arginase 1 and Arginase 2 activity were quantified by measuring the formation of the thiol group from thioarginine using recombinant Arginase 1 or Arginase 2 produced from E. coli. The thiol group was detected with Ellman's reagent, 5,5′-dithiobis(2-nitrobenzoic acid) (DTNB). DTNB reacts with the thiol to give the mixed disulfide and 2-nitro-5-thiobenzoic acid (TNB) which is quantified by the absorbance of the anion (TNB^2−) at 412 nm.
(§2) The assays were run in clear 384 well plates (Greiner cat no: 781101). Various concentrations of Examples 1-26 in 300 nL DMSO were dispensed to assay plates using an Echo acoustic dispenser immediately followed by plate sealing and centrifugation. Two pre-mixes were prepared from reagents thawed immediately before addition to assay plates. Pre-mix one comprised human Arginase 1 or human Arginase 2, at a final concentration of 5 nM and 0.5 mM DTNB in assay buffer, 45 mM HEPES pH7.5, brij 35, 0.045% (w/v) and 100 μM MnCl2. Pre-mix two comprised freshly thawed 0.5 mM thioarginine in assay buffer. Fifteen microlitres of pre-mix one was dispensed to assay plates containing Examples 1-9, centrifuged and incubated for 30 minutes at room temperature prior to adding fifteen microlitres of pre-mix two.
(§3) Assay plates were centrifuged prior to reading absorbance at 412 nm in a Pherastar multi-mode plate reader to collect data at time point 0 (T0). The plates were incubated at room temperature for 60 min prior to reading again to collect data at time point 1 (T1). Data is derived by subtracting the A412 signal measured at T0 (time point 0) from that measured at T1 (time point 1). The data was transformed to % effect using the equation:
(§4) Compound % effect=100*[(X−min)/(max−min)],
(§5) where X represents the normalized value for the compound based on the Min (vehicle) and Max (reference compound) inhibition control.
(§6) The concentration of Examples 1-26 that inhibited the activity by 50% (i.e.the IC50) was calculated by plotting the % effect versus test compound concentration and fitting the data using the Genedata Screener Smart fit algorithm.

Human Arginase 2 = target: T2, Human Arginase 2 (Homo sapiens, UniProt P78540); assay: Human Arginase 2 enzyme inhibition (thioarginine/DTNB absorbance at 412 nm); assay type: biochemical; details: recombinant enzyme 5 nM, 60 min, room temperature
T2 construct: made in house; host or cells: E. coli
T2 sequence (P78540 23-354): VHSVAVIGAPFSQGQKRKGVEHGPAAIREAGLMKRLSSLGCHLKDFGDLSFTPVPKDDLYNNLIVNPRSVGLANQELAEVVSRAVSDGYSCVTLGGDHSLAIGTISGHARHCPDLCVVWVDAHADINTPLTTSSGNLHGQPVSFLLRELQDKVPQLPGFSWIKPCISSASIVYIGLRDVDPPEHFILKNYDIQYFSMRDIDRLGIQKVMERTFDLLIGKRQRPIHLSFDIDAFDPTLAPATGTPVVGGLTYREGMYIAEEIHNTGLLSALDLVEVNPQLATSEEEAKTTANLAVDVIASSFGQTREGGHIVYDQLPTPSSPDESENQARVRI
From the text: as §1, §2, §3, §4, §5, §6

[2] = plasma, payload when dosed as payload, IV
[3] = pro-drug in plasma when dosed as pro-drug, IV 2 mg/kg
[4] = pro-drug in plasma when dosed as pro-drug

Row | Structure (SMILES) | clearance [1, 2] [mL/min/kg] | Vd [1, 2] [L/kg] | pIC50 (Human Arginase 1) | pIC50 (Human Arginase 2) | clearance [1, 3] [mL/min/kg] | Vd [1, 3] [L/kg] | Cmax [1, 4] [nM] | Tmax [1, 4] [min] | bioavailability ([1]; plasma) [%] | AUC [1, 4] [µM·h]
1 | NC[C@@H](CCCB(O)O)[C@H](N)C(=O)O [Example 1, (2S,3R)-2-amino-3-(aminomethyl)-6-boronohexanoic acid] | 8.26 | 0.46 | 7.41 | 7.09 |  |  |  |  |  | 
2 | N[C@H](C(=O)O)[C@H](CCCB(O)O)CN1CCOCC1 [Example 2, (2S,3R)-2-amino-6-borono-3-(morpholinomethyl)hexanoic acid] |  |  | 4.41 | 4.07 |  |  |  |  |  | 
3 | N[C@H](C(=O)O)[C@H](CCCB(O)O)CN1CCCCC1 [Example 3, (2S,3R)-2-amino-6-borono-3-(piperidin-1-ylmethyl)hexanoic acid] |  |  | 5.15 | 4.79 |  |  |  |  |  | 
4 | CNC[C@@H](CCCB(O)O)[C@H](N)C(=O)O [Example 4, (2S,3R)-2-amino-6-borono-3-((methylamino)methyl)hexanoic acid] |  |  | 6.06 | 6.11 |  |  |  |  |  | 
5 | CN(C)C[C@@H](CCCB(O)O)[C@H](N)C(=O)O [Example 5, (2S,3R)-2-amino-6-borono-3-((dimethylamino)methyl)hexanoic acid] |  |  | 5.68 | 5.37 |  |  |  |  |  | 
6 | NC(=O)NC[C@@H](CCCB(O)O)[C@H](N)C(=O)O [Example 7, (2S,3R)-2-amino-6-borono-3-(ureidomethyl)hexanoic acid] |  |  | 5.56 | 5.25 |  |  |  |  |  | 
7 | CC(C)[C@H](N)C(=O)NC[C@@H](CCCB(O)O)[C@H](N)C(=O)O [Example 8, (2S,3R)-2-amino-3-(((S)-2-amino-3-methylbutanamido)methyl)-6-boronohexanoic acid] |  |  | 6.82 | 6.31 |  |  |  |  |  | 
8 | CC[C@H](N)C(=O)NC[C@@H](CCCB(O)O)[C@H](N)C(=O)O [Example 9, (2S,3R)-2-amino-3-(((S)-2-aminobutanamido)methyl)-6-boronohexanoic acid] |  |  | 6.74 | 6.39 |  |  |  |  |  | 
9 | C[C@H](N)C(=O)NC[C@@H](CCCB(O)O)[C@H](N)C(=O)O [Example 10, (2S,3R)-2-amino-3-(((S)-2-aminopropanamido)methyl)-6-boronohexanoic acid] |  |  | 6.80 | 6.44 |  |  |  |  |  | 
10 | CC(=O)NC[C@@H](CCCB(O)O)[C@H](N)C(=O)O [Example 11, (2S,3R)-3-(acetamidomethyl)-2-amino-6-boronohexanoic acid] |  |  | 5.29 | 5.23 |  |  |  |  |  | 
11 | CN[C@H](C(=O)O)[C@@H](CN)CCCB(O)O [Example 12, (2S,3R)-3-(aminomethyl)-6-borono-2-(methylamino)hexanoic acid] |  |  | 6.40 | 5.97 |  |  |  |  |  | 
12 | CC(C)[C@H](N)C(=O)N[C@H](C(=O)O)[C@@H](CN)CCCB(O)O [Example 13, (2S,3R)-2-((S)-2-Amino-3-methylbutanamido)-3-(aminomethyl)-6-boronohexanoic acid] |  |  | 4.88 | 5.02 |  |  |  |  |  | 
13 | C[C@H](N)C(=O)N[C@H](C(=O)O)[C@@H](CN)CCCB(O)O [Example 14, (2S,3R)-3-(aminomethyl)-2-((S)-2-aminopropanamido)-6-boronohexanoic acid] |  |  | 5.66 | 5.41 | 46.1 | 0.47 | 130 | 15 |  | 
14 | NCC[C@@H](CCCB(O)O)[C@H](N)C(=O)O [Example 15, (2S,3R)-2-amino-3-(2-aminoethyl)-6-boronohexanoic acid] |  |  | 6.66 | 6.32 |  |  |  |  |  | 

More lines, now with the values ahead:

Row | clearance [1, 2] [mL/min/kg] | Vd [1, 2] [L/kg] | pIC50 (Human Arginase 1) | pIC50 (Human Arginase 2) | clearance [1, 3] [mL/min/kg] | Vd [1, 3] [L/kg] | Cmax [1, 4] [nM] | Tmax [1, 4] [min] | bioavailability ([1]; plasma) [%] | AUC [1, 4] [µM·h] | Structure (SMILES)
15 |  |  | 4.72 | 4.26 |  |  |  |  |  |  | NC(=O)[C@@H](CCCB(O)O)[C@H](N)C(=O)O [Example 16, (2S,3S)-2-amino-6-borono-3-carbamoylhexanoic acid]
16 |  |  | 4.47 | < 4.00 |  |  |  |  |  |  | CNC(=O)[C@@H](CCCB(O)O)[C@H](N)C(=O)O [Example 17, (2S,3S)-2-amino-6-borono-3-(methylcarbamoyl)hexanoic acid]
17 | 7.3 | 0.38 | 7.05 | 6.66 |  |  |  |  |  |  | NC[C@H](CCCB(O)O)[C@H](N)C(=O)O [Example 18, (2S,3S)-2-amino-3-(aminomethyl)-6-boronohexanoic acid]
18 |  |  | 7.22 | 6.96 | 16.4 | 0.47 | 660 | 30 | 8.3 | 1.4 | CC(C)[C@H](N)C(=O)NC[C@H](CCCB(O)O)[C@H](N)C(=O)O [Example 19, (2S,3S)-2-amino-3-(((S)-2-amino-3-methylbutanamido)methyl)-6-boronohexanoic acid]
19 |  |  | 8.05 | 6.85 | 12.5 | 0.21 | 440 | 45 | 5.1 | 1.25 | C[C@H](N)C(=O)NC[C@H](CCCB(O)O)[C@H](N)C(=O)O [Example 20, (2S,3S)-2-amino-3-(((S)-2-aminopropanamido)methyl)-6-boronohexanoic acid]
20 |  |  | 7.41 | 7.21 | 14.1 | 0.22 | 230 | 30 | 1.5 | 0.35 | CC[C@H](N)C(=O)NC[C@H](CCCB(O)O)[C@H](N)C(=O)O [Example 21, (2S,3S)-2-amino-3-(((S)-2-aminobutanamido)methyl)-6-boronohexanoic acid]
21 |  |  | 7.31 | 7.00 | 13.1 | 0.2 | 450 | 60 | 4.5 | 0.92 | CC[C@H](C)[C@H](N)C(=O)NC[C@H](CCCB(O)O)[C@H](N)C(=O)O [Example 22, (2S,3S)-2-amino-3-(((2S,3S)-2-amino-3-methylpentanamido)methyl)-6-boronohexanoic acid]
22 |  |  | 7.52 | 7.00 |  |  |  |  |  |  | CC(C)(C)[C@H](N)C(=O)NC[C@H](CCCB(O)O)[C@H](N)C(=O)O [Example 23, (2S,3S)-2-amino-3-(((S)-2-amino-3,3-dimethylbutanamido)methyl)-6-boronohexanoic acid]
23 |  |  | 7.66 | 7.19 | 8.4 | 0.2 | 880 | 105 | 6.4 | 2.9 | NCC(=O)NC[C@H](CCCB(O)O)[C@H](N)C(=O)O [Example 24, (2S,3S)-2-amino-3-((2-aminoacetamido)methyl)-6-boronohexanoic acid]
